Test results taken from patent publication US9439845B2, “Glycyrrhetinimidyl hydroxyproline alkyl esters and protected derivatives thereof” (REVLON CONSUMER PRODUCTS CORPORATION, priority 2013, dated 2016).

What was measured:
Assay type in all cases: cell-based
[1] = tested on: extracellular collagen I in normal human dermal fibroblasts (NHDF); assay: Extracellular Collagen I expression in fibroblasts (fiber deposition); details: for % Control (extracellular Collagen I) / % Stimulation (extracellular Collagen I) / Mean Collagen I (fibers): 72 hours
Procedure: (§1) It is believed that the glycyrrhetinimidyl hydroxyproline alkyl esters of the present invention are useful for promoting collagen production in human skin. In an exemplary test, normal human dermal fibroblasts (NHDF) were cultured in culture medium for 24 hours. The medium was then replaced with culture medium containing or not (control) the test compound or the reference compound (Vitamin C) or the reference mix (Vitamin C and TGF-β). The cells were then incubated for 72 hours. After incubation, the culture medium was then collected and the cells were washed and fixed. Cells were then labeled with a primary antibody (anti-collagen I or anti-collagen III). […] An INCell Analyzer 1000 was used to take images of each well. The labeling was quantified by the measurement of the fluorescence intensity or fluorescence area normalized to the total number of cells.
(§2) A collagen release promoter, such as Vitamin C, could be used to release the intracellular collagen into the extracellular matrix. Note that in Tables 3 and 4 below, the apparent inhibition of glycyrrhetinimidyl hydroxyproline methyl ester on extracellular collagen fiber deposition is due to an artifact effect.

[2] = tested on: collagen III in normal human dermal fibroblasts (NHDF); assay: Total Collagen III expression in fibroblasts (immunofluorescence, INCell Analyzer 1000); details: for % Control (total Collagen III) / % Stimulation (total Collagen III) / Mean Collagen III (AU): 72 hours
Procedure: as §1

[3] = tested on: collagen I in normal human dermal fibroblasts (NHDF); assay: Total Collagen I expression in fibroblasts (immunofluorescence, INCell Analyzer 1000); details: for % Control (total Collagen I) / % Stimulation (total Collagen I) / Mean Collagen I (AU): 72 hours; for Mean Collagen I (AU): AU = fluorescence intensity/number of cells
Procedure: as §1

[4] = tested on: extracellular collagen III in normal human dermal fibroblasts (NHDF); assay: Extracellular Collagen III expression in fibroblasts (fiber deposition); details: for % Control (extracellular Collagen III) / % Stimulation (extracellular Collagen III) / Mean Collagen III (fibers): 72 hours
Procedure: as §1, §2

[5] = 10 μM, apparent inhibition said to be an artifact
[6] = 30 μM, apparent inhibition said to be an artifact
[7] = qualitative analysis of the images

glycyrrhetinimidyl hydroxyproline methyl ester
% Control (extracellular Collagen I) ([1]; 3.3 μM): 102%
% Stimulation (extracellular Collagen I) ([1]; 3.3 μM): 2%
Mean Collagen I (fibers) ([1]; 3.3 μM): 63 fibers
% Control (extracellular Collagen I) [1, 5]: 79%
% Stimulation (extracellular Collagen I) [1, 5]: −21%
Mean Collagen I (fibers) [1, 5]: 48 fibers
% Control (extracellular Collagen I) [1, 6]: 70%
% Stimulation (extracellular Collagen I) [1, 6]: −30%
Mean Collagen I (fibers) [1, 6]: 43 fibers
effect on collagen I extracellular fiber deposition [1, 7]: no significant effect
extracellular release of collagen I ([1]; summary of Table 3): no significant increase
% Control (total Collagen III) ([2]; 3.3 μM): 105%
% Stimulation (total Collagen III) ([2]; 3.3 μM): 5%
Mean Collagen III (AU) ([2]; 3.3 μM): 177399 AU
% Control (total Collagen III) ([2]; 10 μM): 118%
% Stimulation (total Collagen III) ([2]; 10 μM): 18%
Mean Collagen III (AU) ([2]; 10 μM): 199984 AU
% Control (total Collagen III) ([2]; 30 μM): 142%
% Stimulation (total Collagen III) ([2]; 30 μM): 42%
Mean Collagen III (AU) ([2]; 30 μM): 240374 AU
increase of the NHDF's neosynthesis of collagen III ([2]; maximum over tested concentrations (text summary of Table 2)): up to 42%
% Control (total Collagen I) ([3]; 3.3 μM): 102%
% Stimulation (total Collagen I) ([3]; 3.3 μM): 2%
Mean Collagen I (AU) ([3]; 3.3 μM): 222721 AU
% Control (total Collagen I) ([3]; 10 μM): 97%
% Stimulation (total Collagen I) ([3]; 10 μM): −3%
Mean Collagen I (AU) ([3]; 10 μM): 210888 AU
% Control (total Collagen I) ([3]; 30 μM): 126%
% Stimulation (total Collagen I) ([3]; 30 μM): 26%
Mean Collagen I (AU) ([3]; 30 μM): 274297 AU
increase of the NHDF's neosynthesis of collagen I ([3]; maximum over tested concentrations (text summary of Table 1)): up to 26%
% Control (extracellular Collagen III) ([4]; 3.3 μM): 105%
% Stimulation (extracellular Collagen III) ([4]; 3.3 μM): 5%
Mean Collagen III (fibers) ([4]; 3.3 μM): 34 fibers
% Control (extracellular Collagen III) ([4]; 10 μM): 107%
% Stimulation (extracellular Collagen III) ([4]; 10 μM): 7%
Mean Collagen III (fibers) ([4]; 10 μM): 34 fibers
% Control (extracellular Collagen III) [4, 6]: 78%
% Stimulation (extracellular Collagen III) [4, 6]: −22%
Mean Collagen III (fibers) [4, 6]: 25 fibers
effect on collagen III extracellular fiber deposition [4, 7]: no significant effect
extracellular release of collagen III ([4]; text summary of Table 4): no significant increase
